According to patent publication US8124774B2, “Therapeutic ((phenyl)imidazolyl)methylquinolinyl compounds” (Allergan, Inc., priority 2007, dated 2012):

Columns and labels:
Type in all cases: cell-based
[1] = target: T1, alpha2A receptor (Homo sapiens, UniProt P08913); experiment: RSAT assay (Receptor Selection and Amplification Technology), alpha2A; details: value in parentheses; ratio of maximal effect to that of standard full agonist brimonidine (UK14304)
T1 construct: expressed in transfected cells; host or cells: NIH-3T3
T1 sequence (P08913 1-465): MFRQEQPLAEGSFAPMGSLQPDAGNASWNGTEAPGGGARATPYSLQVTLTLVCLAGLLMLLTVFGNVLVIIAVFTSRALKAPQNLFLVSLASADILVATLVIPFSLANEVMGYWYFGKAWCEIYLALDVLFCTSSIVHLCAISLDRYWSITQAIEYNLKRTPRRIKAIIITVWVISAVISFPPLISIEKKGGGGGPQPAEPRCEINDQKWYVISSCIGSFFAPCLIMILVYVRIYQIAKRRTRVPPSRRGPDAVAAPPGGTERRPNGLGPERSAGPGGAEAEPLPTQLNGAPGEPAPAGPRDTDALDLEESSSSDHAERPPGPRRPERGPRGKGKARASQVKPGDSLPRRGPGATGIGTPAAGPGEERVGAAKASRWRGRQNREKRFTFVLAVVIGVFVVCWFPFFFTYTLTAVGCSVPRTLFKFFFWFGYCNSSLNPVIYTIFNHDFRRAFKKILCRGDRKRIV
Description: (§1) Receptor Selection and Amplification Technology (RSAT) Assay
(§2) The RSAT assay measures a receptor-mediated loss of contact inhibition that results in selective proliferation of receptor-containing cells in a mixed population of confluent cells. The increase in cell number is assessed with an appropriate transfected marker gene such as β-galactosidase, the activity of which can be easily measured in a 96-well format. Receptors that activate the G protein, Gq, elicit this response. Alpha2 receptors, which normally couple to Gi, activate the RSAT response when coexpressed with a hybrid Gq protein that has a Gi receptor recognition domain, called Gq/i5.
NIH-3T3 cells are plated at a density of 2×10^6 cells in 15 cm dishes and maintained in Dulbecco's modified Eagle's medium supplemented with 10% calf serum. […] After washing with phosphate-buffered saline, β-galactosidase enzyme activity is determined by adding 200 μl of the chromogenic substrate (consisting of 3.5 mM o-nitrophenyl-β-D-galactopyranoside and 0.5% nonidet P-40 in phosphate buffered saline), incubating overnight at 30° C. and measuring optical density at 420 nm. The absorbance is a measure of enzyme activity, which depends on cell number and reflects a receptor-mediated cell proliferation. […]

[2] = target: T2, alpha2B receptor (Homo sapiens, UniProt P18089); experiment: RSAT assay (Receptor Selection and Amplification Technology), alpha2B; details: for EC50: NIH-3T3 cells cotransfected with receptor and Gq/i5, read-out: Alpha 2B potency EC50; for Alpha 2B intrinsic activity (efficacy): value in parentheses, ratio of maximal effect to that of standard full agonist brimonidine (UK14304)
T2 construct: expressed in transfected cells; host or cells: NIH-3T3
T2 sequence (P18089 1-450): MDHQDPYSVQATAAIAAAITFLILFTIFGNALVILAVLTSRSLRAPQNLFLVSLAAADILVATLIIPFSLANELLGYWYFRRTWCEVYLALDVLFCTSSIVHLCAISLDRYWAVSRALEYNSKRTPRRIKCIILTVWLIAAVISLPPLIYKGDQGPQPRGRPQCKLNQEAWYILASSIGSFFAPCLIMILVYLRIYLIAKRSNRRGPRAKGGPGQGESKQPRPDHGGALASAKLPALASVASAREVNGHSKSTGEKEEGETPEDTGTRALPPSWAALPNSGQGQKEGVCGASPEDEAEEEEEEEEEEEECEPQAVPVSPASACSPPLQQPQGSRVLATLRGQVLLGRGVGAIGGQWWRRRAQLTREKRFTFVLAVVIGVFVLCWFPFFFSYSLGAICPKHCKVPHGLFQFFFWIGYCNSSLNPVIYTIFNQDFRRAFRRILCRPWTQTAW
Description: as §1, §2
(§3) NIH-3T3 cells are plated at a density of 2×10^6 cells in 15 cm dishes and maintained in Dulbecco's modified Eagle's medium supplemented with 10% calf serum. One day later, cells are cotransfected by calcium phosphate precipitation with mammalian expression plasmids encoding p-SV-β-galactosidase (5-10 μg), receptor (1-2 μg) and G protein (1-2 μg). 40 μg salmon sperm DNA may also be included in the transfection mixture. Fresh media is added on the following day and 1-2 days later, cells are harvested and frozen in 50 assay aliquots. Cells are thawed and 100 μl added to 100 μl aliquots of various concentrations of drugs in triplicate in 96-well dishes. Incubations continue 72-96 hr at 37° C. After washing with phosphate-buffered saline, β-galactosidase enzyme activity is determined by adding 200 μl of the chromogenic substrate (consisting of 3.5 mM o-nitrophenyl-β-D-galactopyranoside and 0.5% nonidet P-40 in phosphate buffered saline), incubating overnight at 30° C. and measuring optical density at 420 nm. The absorbance is a measure of enzyme activity, which depends on cell number and reflects a receptor-mediated cell proliferation. The efficacy or intrinsic activity is calculated as a ratio of the maximal effect of the drug to the maximal effect of a standard full agonist for each receptor subtype. Brimonidine, also called UK14304, the chemical structure of which is shown below, is used as the standard agonist for the alpha2A, alpha2B and alpha2c receptors. The EC50 is the concentration at which the drug effect is half of its maximal effect.
(§4) EC50 values are nanomolar. ND stands for “not determinable” at concentrations less than 10 micromolar. IA stands for “intrinsic activity.”

[3] = target: T3, alpha2c receptor (Homo sapiens, UniProt P18825); experiment: RSAT assay (Receptor Selection and Amplification Technology), alpha2C; details: for EC50: NIH-3T3 cells cotransfected with receptor and Gq/i5, read-out: Alpha 2C potency EC50; for Alpha 2C intrinsic activity (efficacy): value in parentheses, ratio of maximal effect to that of standard full agonist brimonidine (UK14304)
T3 construct: expressed in transfected cells; host or cells: NIH-3T3
T3 sequence (P18825 1-462): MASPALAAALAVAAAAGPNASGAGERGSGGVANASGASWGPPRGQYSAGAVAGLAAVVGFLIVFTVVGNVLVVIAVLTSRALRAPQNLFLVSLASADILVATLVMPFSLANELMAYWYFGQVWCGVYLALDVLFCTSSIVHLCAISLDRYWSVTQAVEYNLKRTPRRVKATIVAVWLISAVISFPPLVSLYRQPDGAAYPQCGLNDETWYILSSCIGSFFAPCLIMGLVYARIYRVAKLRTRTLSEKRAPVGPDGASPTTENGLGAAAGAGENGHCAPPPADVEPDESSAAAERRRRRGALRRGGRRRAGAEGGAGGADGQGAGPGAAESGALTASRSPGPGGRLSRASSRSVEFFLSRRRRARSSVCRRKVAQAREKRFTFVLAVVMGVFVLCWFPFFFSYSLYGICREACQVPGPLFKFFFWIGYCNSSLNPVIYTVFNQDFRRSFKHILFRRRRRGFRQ
Description: as §1, §2, §3, §4

| Structure (SMILES) | Alpha 2A intrinsic activity (efficacy) [1] | EC50 [2] [nM] | Alpha 2B intrinsic activity (efficacy) [2] | EC50 [3] [nM] | Alpha 2C intrinsic activity (efficacy) [3] |
| --- | --- | --- | --- | --- | --- |
| c1ccc(C(c2cnc[nH]2)c2cccc3ncccc23)cc1 (stereo not shown) [5-((1H-imidazol-5-yl)(phenyl)methyl)quinoline] | 0.12 | 319 | 0.89 | 50 | 0.33 |
| c1ccc(C(c2cnc[nH]2)c2cccc3cccnc23)cc1 (stereo not shown) [8-((1H-imidazol-5-yl)(phenyl)methyl)quinoline] | 0.09 | 23 | 1.16 | 832 | 0.61 |
